Source: article PMC6979384, “Characterization of the plant homeodomain (PHD) reader family for their histone tail interactions” (Epigenetics & Chromatin, 2020)

Key:
[1] = dCypher AlphaScreen Phase A, optimal reader concentration range; format: binding; settings: 100 nM biotinylated peptide; 30 min + 60 min at 23 °C; AlphaLISA; n = 2
Description: Fig. 3 dCypher histone peptide-binding assays define the PTM recognition preference of PHD proteins with high sensitivity. a–h Binding curves to determine optimal reader protein concentration for full peptide library screening on the dCypher® AlphaScreen® platform (see “Methods”). X-axes are log(protein concentration (M)) at constant peptide concentration (100 nM); Y-axes are AlphaScreen counts, representing relative strength of binding (n = 2; error bars are S.D.). i Heat map represents relative binding to H3 N-terminal peptides (left) by PHD-containing GST-tagged proteins (top) using the dCypher AlphaScreen platform. Protein concentrations can be found in Additional file 5: Table S4. Binding strength is indicated by color gradient from green to yellow (stronger to weaker). The asterisk (*) by MLL5 signifies its general preference for H3K4 methylation. Alpha counts (n = 2) were normalized individually for each protein to the highest signal for each respective assay. For full dCypher peptide screen data, see Additional file 4: Table S3
We next employed a highly sensitive proximity-based AlphaScreen histone peptide assay (dCypher®) to provide a third and orthogonal approach to analyzing the histone binding preferences for a subset of the 31 PHD proteins with respect to various histone tail PTMs. In this assay, biotinylated peptides are bound to streptavidin “donor” beads and the GST-tagged reader domains bound to Glutathione “acceptor” beads. […] Initial binding assays were conducted for each fusion protein using three peptides [H3 (1–20) with K4me0, H3K4me3 or H3K9me3] to determine the optimal reader domain concentration for full peptide library studies (Fig. 3a–h; Additional file 4: Table S3 and Additional file 5: Table S4). […]
The dCypher peptide screen assay was performed as previously described. […] Plates were incubated at 23 °C in subdued lighting for 60 min and AlphaLISA signal measured on a PerkinElmer 2104 EnVision (680 nm laser excitation, 570 nm emission filter ± 50 nm bandwidth). […]

AIRE (PP) = test: Histone peptide microarray; format: binding, human; settings: sheet "Array Heatmap"; GST-tagged reader; histone peptide array, total n = 4
In short: (§1)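 Binding read as mean relative signal from 4 replicates; microarray held 293 synthetic histone peptides with single or combinatorial PTMs. Each GST-tagged PHD reader was applied at 0.5 μM using the optimized Petell protocol.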

BAZ2B = test: Histone peptide microarray; format: binding, human; settings: sheet "Array Heatmap"; GST-tagged reader; histone peptide array, total n = 4
In short: as §1

BPTF (PB) = test: Histone peptide microarray; format: binding, human; settings: sheet "Array Heatmap"; GST-tagged reader; histone peptide array, total n = 4
In short: as §1

CHD4 (PPCC) = test: Histone peptide microarray; format: binding, human; settings: sheet "Array Heatmap"; GST-tagged reader; histone peptide array, total n = 4
In short: as §1

CHD5 (PCC) = test: Histone peptide microarray; format: binding, human; settings: sheet "Array Heatmap"; GST-tagged reader; histone peptide array, total n = 4
In short: as §1

CHD5 (PPCC) = test: Histone peptide microarray; format: binding, human; settings: sheet "Array Heatmap"; GST-tagged reader; histone peptide array, total n = 4
In short: as §1

DIDO1 = test: Histone peptide microarray; format: binding, human; settings: sheet "Array Heatmap"; GST-tagged reader; histone peptide array, total n = 4
In short: as §1

DPF2 (PPC2W2) = test: Histone peptide microarray; format: binding, human; settings: sheet "Array Heatmap"; GST-tagged reader; histone peptide array, total n = 4
In short: as §1

ING1 = test: Histone peptide microarray; format: binding, human; settings: sheet "Array Heatmap"; GST-tagged reader; histone peptide array, total n = 4
In short: as §1

ING2 = test: Histone peptide microarray; format: binding, human; settings: sheet "Array Heatmap"; GST-tagged reader; histone peptide array, total n = 4
In short: as §1

ING3 = test: Histone peptide microarray; format: binding, human; settings: sheet "Array Heatmap"; GST-tagged reader; histone peptide array, total n = 4
In short: as §1

ING4 = test: Histone peptide microarray; format: binding, human; settings: sheet "Array Heatmap"; GST-tagged reader; histone peptide array, total n = 4
In short: as §1

ING5 = test: Histone peptide microarray; format: binding, human; settings: sheet "Array Heatmap"; GST-tagged reader; histone peptide array, total n = 4
In short: as §1

KDM4C (TTP) = test: Histone peptide microarray; format: binding, human; settings: sheet "Array Heatmap"; GST-tagged reader; histone peptide array, total n = 4
In short: as §1

KDM5A (1) = test: Histone peptide microarray; format: binding, human; settings: sheet "Array Heatmap"; GST-tagged reader; histone peptide array, total n = 4
In short: as §1

KDM5A (3) = test: Histone peptide microarray; format: binding, human; settings: sheet "Array Heatmap"; GST-tagged reader; histone peptide array, total n = 4
In short: as §1

KDM5B (1) = test: Histone peptide microarray; format: binding, human; settings: sheet "Array Heatmap"; GST-tagged reader; histone peptide array, total n = 4
In short: as §1

KDM5B (3) = test: Histone peptide microarray; format: binding, human; settings: sheet "Array Heatmap"; GST-tagged reader; histone peptide array, total n = 4
In short: as §1

KDM7A = test: Histone peptide microarray; format: binding, human; settings: sheet "Array Heatmap"; GST-tagged reader; histone peptide array, total n = 4
In short: as §1

MLL5 = test: Histone peptide microarray; format: binding, human; settings: sheet "Array Heatmap"; GST-tagged reader; histone peptide array, total n = 4
In short: as §1

MORC3 (CW) = test: Histone peptide microarray; format: binding, human; settings: sheet "Array Heatmap"; GST-tagged reader; histone peptide array, total n = 4
In short: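 GST-tagged PHD finger readers were expressed, purified and applied at 0.5 μM to a microarray of 293 synthetic histone peptides carrying single or combinatorial PTMs, using an optimized protocol. Binding signals are averages with standard deviation from 4 replicates.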

PHF13 = test: Histone peptide microarray; format: binding, human; settings: sheet "Array Heatmap"; GST-tagged reader; histone peptide array, total n = 4
In short: as §1

PHF21A = test: Histone peptide microarray; format: binding, human; settings: sheet "Array Heatmap"; GST-tagged reader; histone peptide array, total n = 4
In short: as §1

PHF23 = test: Histone peptide microarray; format: binding, human; settings: sheet "Array Heatmap"; GST-tagged reader; histone peptide array, total n = 4
In short: as §1

PHF2 = test: Histone peptide microarray; format: binding, human; settings: sheet "Array Heatmap"; GST-tagged reader; histone peptide array, total n = 4
In short: as §1

PHF8 = test: Histone peptide microarray; format: binding, human; settings: sheet "Array Heatmap"; GST-tagged reader; histone peptide array, total n = 4
In short: as §1

PHRF1 (RP) = test: Histone peptide microarray; format: binding, human; settings: sheet "Array Heatmap"; GST-tagged reader; histone peptide array, total n = 4
In short: as §1

RAG2 = test: Histone peptide microarray; format: binding, human; settings: sheet "Array Heatmap"; GST-tagged reader; histone peptide array, total n = 4
In short: as §1

SP140L = test: Histone peptide microarray; format: binding, human; settings: sheet "Array Heatmap"; GST-tagged reader; histone peptide array, total n = 4
In short: as §1

TAF3 = test: Histone peptide microarray; format: binding, human; settings: sheet "Array Heatmap"; GST-tagged reader; histone peptide array, total n = 4
In short: as §1

TRIM66 (PB) = test: Histone peptide microarray; format: binding, human; settings: sheet "Array Heatmap"; GST-tagged reader; histone peptide array, total n = 4
In short: as §1

H3K4me0 readers = test: dCypher AlphaScreen Phase B (full peptide screen), H3K4me0 readers together; format: binding, human; settings: 100 nM peptide, 23 °C, n = 2
Description: Fig. 3 dCypher histone peptide-binding assays define the PTM recognition preference of PHD proteins with high sensitivity. a–h Binding curves to determine optimal reader protein concentration for full peptide library screening on the dCypher® AlphaScreen® platform (see “Methods”). X-axes are log(protein concentration (M)) at constant peptide concentration (100 nM); Y-axes are AlphaScreen counts, representing relative strength of binding (n = 2; error bars are S.D.). i Heat map represents relative binding to H3 N-terminal peptides (left) by PHD-containing GST-tagged proteins (top) using the dCypher AlphaScreen platform. Protein concentrations can be found in Additional file 5: Table S4. […]
Once the optimal protein concentration ranges for each of the eight readers were determined, we conducted the full dCypher peptide screen (293 histone peptides) (Fig. 3i; Additional file 4: Table S3).
The dCypher peptide screen assay was performed as previously described. Briefly, 5 μL of GST-tagged reader domains (optimal protein concentration for library screening determined by initial binding curves to candidate peptides) were incubated with 5 μL of 400 nM (100 nM Final) biotinylated histone peptides (EpiCypher) for 30 min at 23 °C in 1× AlphaLISA Epigenetics buffer + epigenetics buffer supplement (PerkinElmer, AL1008) in a 384-well plate. […]

DIDO1: GST-tagged PHD, 250-340
Phase A Optimal Range (reader concentration) [1]: 0.015 to 0.5 nM

H3K9me3 + S10p: H3 1-20
Array Heatmap signal, AIRE (PP) (AIRE (PP)): 0.5449 | Array Heatmap signal, BAZ2B (BAZ2B): 0.4277 | Array Heatmap signal, BPTF (PB) (BPTF (PB)): 0.3029 | Array Heatmap signal, CHD4 (PPCC) (CHD4 (PPCC)): 0.5281 | Array Heatmap signal, CHD5 (PCC) (CHD5 (PCC)): 0.7991 | Array Heatmap signal, CHD5 (PPCC) (CHD5 (PPCC)): 0.486 | Array Heatmap signal, DIDO1 (DIDO1): 0.5964 | Array Heatmap signal, DPF2 (PPC2W2) (DPF2 (PPC2W2)): 0.6544 | Array Heatmap signal, ING1 (ING1): 0.4648 | Array Heatmap signal, ING2 (ING2): 0.5763 | Array Heatmap signal, ING3 (ING3): 0.3956 | Array Heatmap signal, ING4 (ING4): 0.3907 | Array Heatmap signal, ING5 (ING5): 0.3112 | Array Heatmap signal, KDM4C (TTP) (KDM4C (TTP)): 0.4574 | Array Heatmap signal, KDM5A (1) (KDM5A (1)): 0.4357 | Array Heatmap signal, KDM5A (3) (KDM5A (3)): 0.3848 | Array Heatmap signal, KDM5B (1) (KDM5B (1)): 0.7016 | Array Heatmap signal, KDM5B (3) (KDM5B (3)): 0.4113 | Array Heatmap signal, KDM7A (KDM7A): 0.3788 | Array Heatmap signal, MLL5 (MLL5): 0.5167 | Array Heatmap signal, MORC3 (CW) (MORC3 (CW)): 0.3534 | Array Heatmap signal, PHF13 (PHF13): 0.5317 | Array Heatmap signal, PHF21A (PHF21A): 0.4454 | Array Heatmap signal, PHF23 (PHF23): 0.4606 | Array Heatmap signal, PHF2 (PHF2): 0.4043 | Array Heatmap signal, PHF8 (PHF8): 0.3127 | Array Heatmap signal, PHRF1 (RP) (PHRF1 (RP)): 0.515 | Array Heatmap signal, RAG2 (RAG2): 0.2135 | Array Heatmap signal, SP140L (SP140L): 0.319 | Array Heatmap signal, TAF3 (TAF3): 0.2418 | Array Heatmap signal, TRIM66 (PB) (TRIM66 (PB)): 0.578 | loss of binding on S10 phosphorylation (H3K4me0 readers): four out of five of the H3K4me0 readers lose binding capacity

KDM7A: GST-tagged PHD, 1-100
Phase A Optimal Range (reader concentration) [1]: 0.05 to 1 nM

MLL5: GST-tagged PHD, 100-180
Phase A Optimal Range (reader concentration) [1]: 0.015 to 0.05 nM
